Consider one compound from paper PMC8058733, “A pain killer without analgesic tolerance designed by co-targeting PSD-95-nNOS interaction and α2-containning GABAARs” (Theranostics, 2021).

SMILES strings stand for the structures.

One assay has as its target T1, PSD-95-nNOS complex (Rattus norvegicus, UniProt P29476).
T1 construct: dorsal spinal cord tissues (L4 and L5) were lysed in 400 μl RIPA; from tissue; host or cells: rat dorsal spinal cord (L4 and L5), SNL model
The assay can be described thus: Co-IP of PSD-95-nNOS complex levels in the spinal dorsal horn after SNL. The note with it: SNL rats, ZL006 10 mg/kg, i.v. The class given is in vivo.

In assay [1] the test system is SNL-induced mechanical hyperalgesia. In words: SNL-induced mechanical hyperalgesia, paw withdrawal threshold. As to conditions: SNL rats, ZL006 0.2 mg/d intrathecal infusion × 11 days. The class given is in vivo, rat. The method, then:
(§1) Neuropathic pain was induced by segmental spinal nerve ligation (SNL). Animals were anesthetized with isoflurane. After the loss of righting reflex, the animal was fixed in the prone position. The SNL model was prepared as described previously: a median skin incision with about 3-5 cm length in L4-S2 level of the mouse back was made, the muscles next to the vertebrae till the sixth lumbar protruding were separated, the L5/L6 joint protruding on the right side was exposed and excised, and L6 processus transversus was partially split so that the L4-L6 spinal nerves on the right side were exposed. L5 nerve was gently isolated and tightly ligated with 5-0 silk thread. The wound was closed with 4-0 silk thread suture and covered with iodine solution. After nerve ligation, animals with signs of paw clonus or autotomy were excluded from further experiments.
(§2) Osmotic minipumps (models 1004 for mouse and 2ML4 for rat; Alzet) and intrathecal cannulas (0.61 mm outer diameter and 0.28 mm inner diameter for mouse, 0.99 mm outer diameter and 0.58 mm inner diameter for rat) were filled with a solution of PBS. Cannulas were inserted into the subarachnoid space through the space between the L5 and L6 vertebrae and the tip of the catheter was implanted at the L5 spinal segmental level.
For rats, the threshold for 50% paw withdrawal (50% PWT) response to mechanical stimulus was assessed through a dynamic plantar apparatus (Ugo Basile, Italy). The 50% PWT refers to that the probability of paw withdrawal response to repeated mechanical stimulus is 50%. Rats were placed individually in a plastic cage (17 × 15 × 15 cm) with a wire mesh bottom which allowed full access to the paws. Behavioral accommodation was allowed for 15-20 min until cage exploration and major grooming activities ceased. A maximal cut-off of 50g/50s was set to prevent tissue damage. To record the PWT in response to mechanical stimulus, each rat was measured five times with a 5-min interval, and the mean value was recorded after excluding maximal and minimum values. The experimental procedures were performed in a double-blind manner.

The test system of assay [2] is laminae I excitatory neurons in the SDH. In words: mIPSCs/mEPSCs recordings from acute spinal slices of chronically treated rats. The note with it: SNL rats, ZL006 0.2 mg/d intrathecal × 11 days. It is filed as in vivo, rat.
From the text: as §2
All solutions were bubbled with 95% O2 -5% CO2.
For mPSCs measurements, whole-cell recordings were made from putative excitatory neurons in superficial dorsal horn using low-resistance pipettes (4-8 MΩ). Before mPSCs measurements, excitatory neurons were distinguished from inhibitory neurons by firing pattern analysis according to the established relationship between neuronal firing pattern and its neurotransmitter phenotype, [32]-[34] For mEPSCs measurement, the membrane potential was held at -60 mV. […] Tetrodotoxin (0.5 μM) and bicuculline (20 μM) were added to block action potentials and GABAA receptor-mediated currents respectively. For mIPSCs measurement, the membrane potential was held at -70 mV, microelectrodes were filled with internal pipette solution containing CsCl 140, HEPES 10.0, MgATP 4.0, NaGTP 3.0, EGTA 1.0, MgCl2 1.0, CaCl2 0.3 (in mM). […]. […] Each recording lasts more than 5 min. Data were analyzed using Mini software. Up to 120 events from each neuron were selected at a fixed sampling interval to generate cumulative probability.

The subject of assay [3] is SNL-induced mechanical hyperalgesia. The assay can be described thus: SNL-induced mechanical hyperalgesia, von Frey. As to conditions: WT and nNOS-/- mice, ZL006 i.v., 20 mg/kg. The class given is in vivo, mice. The method, then:
as §1
For mice, the threshold for 50% PWT response to mechanical stimulus was quantified by assessing the paw withdrawal threshold using von Frey filaments (Touch-Test TM Sensory Evaluator, North coast Medical, Inc.). Mice were placed individually in a plastic cage (4.5 × 5 × 11 cm) with a wire mesh bottom which allowed full access to the paws. Behavioral accommodation was allowed for 20-30 min until cage exploration and major grooming activities ceased. Mechanical threshold was measured by applying a von Frey filament to the ventral surface of the right hind paw until a positive sign of pain behavior was elicited. The paradigm for assessing the threshold was as follows. Von Frey filaments with logarithmically incremental stiffness (0.02-2 g) were applied serially to the paw by the up-down method. The filaments were presented, in ascending order of strength, perpendicular to the plantar surface with sufficient force to causes light bending against the paw and held for 4s. A positive response was noted if the paw was sharply withdrawn. Flinching immediately upon removal of the hair was also considered a positive response. The 2-g filament was selected as the upper limit cut-off for testing. If there was no response at 2-g filament, animals were assigned this cut-off value. The pattern of positive and negative withdrawal responses was converted to 50% threshold according to the formula: 50% PWT = 10 log (X) + κδ. X = value (in log unit) of the final von Frey hair used; κ is correction factors based on the pattern of responses from the calibration table; δ = mean difference in log units between stimuli (here, 0.224).

A further assay has as its system neuropathic pain. Also on record: method as in PMID 32632774. The note with it: treatment of neuropathic pain, chronic use; cited from earlier work.
Assay [4] deals with SNL-induced thermal hyperalgesia. The assay can be described thus: SNL-induced thermal hyperalgesia, paw withdrawal latency (Hargreaves). As to conditions: SNL rats, ZL006 0.2 mg/d intrathecal infusion × 11 days. It is filed as in vivo, rat. The method, then:
as §1
Osmotic minipumps (models 1004 for mouse and 2ML4 for rat; Alzet) and intrathecal cannulas (0.61 mm outer diameter and 0.28 mm inner diameter for mouse, 0.99 mm outer diameter and 0.58 mm inner diameter for rat) were filled with a solution of PBS. […]
(§3) Paw withdrawal latency (PWL) response to thermal stimulus was assessed through the Hargreaves test. […] To record the PWL in response to thermal stimulus, each animal was measured five times with a 5-min interval, and the mean value was recorded after excluding maximal and minimum values. […]

The test system is the same in assay [5]. The assay can be described thus: SNL-induced thermal hyperalgesia, paw withdrawal latency. As to conditions: WT and nNOS-/- mice, ZL006 i.v., 20 mg/kg. The class given is in vivo, mice. The protocol:
as §1, with “The wound was closed with 4-0 silk thread suture and covered with iodine solution. After nerve ligation, animals with signs of paw clonus or autotomy were excluded from further experiments.” left out
as §3
(A) Time course of SNL-induced thermal hyperalgesia after treating with ZL006-05 (60 mg/kg, i.g.) in mice. Paw withdrawal latency response to thermal stimulation was detected at 0, 1, 2, 4, 6, 8, 10, 12 and 24 h after drug administration. ( B) Areas under the curve of paw withdrawal latency 0-24 h after treatment calculated from ( A) (F (1,16) = 43.07, ***p < 0.001, two-tailed t-test, n = 9). […]

T1 sequence (P29476 whole entry, one chain of several): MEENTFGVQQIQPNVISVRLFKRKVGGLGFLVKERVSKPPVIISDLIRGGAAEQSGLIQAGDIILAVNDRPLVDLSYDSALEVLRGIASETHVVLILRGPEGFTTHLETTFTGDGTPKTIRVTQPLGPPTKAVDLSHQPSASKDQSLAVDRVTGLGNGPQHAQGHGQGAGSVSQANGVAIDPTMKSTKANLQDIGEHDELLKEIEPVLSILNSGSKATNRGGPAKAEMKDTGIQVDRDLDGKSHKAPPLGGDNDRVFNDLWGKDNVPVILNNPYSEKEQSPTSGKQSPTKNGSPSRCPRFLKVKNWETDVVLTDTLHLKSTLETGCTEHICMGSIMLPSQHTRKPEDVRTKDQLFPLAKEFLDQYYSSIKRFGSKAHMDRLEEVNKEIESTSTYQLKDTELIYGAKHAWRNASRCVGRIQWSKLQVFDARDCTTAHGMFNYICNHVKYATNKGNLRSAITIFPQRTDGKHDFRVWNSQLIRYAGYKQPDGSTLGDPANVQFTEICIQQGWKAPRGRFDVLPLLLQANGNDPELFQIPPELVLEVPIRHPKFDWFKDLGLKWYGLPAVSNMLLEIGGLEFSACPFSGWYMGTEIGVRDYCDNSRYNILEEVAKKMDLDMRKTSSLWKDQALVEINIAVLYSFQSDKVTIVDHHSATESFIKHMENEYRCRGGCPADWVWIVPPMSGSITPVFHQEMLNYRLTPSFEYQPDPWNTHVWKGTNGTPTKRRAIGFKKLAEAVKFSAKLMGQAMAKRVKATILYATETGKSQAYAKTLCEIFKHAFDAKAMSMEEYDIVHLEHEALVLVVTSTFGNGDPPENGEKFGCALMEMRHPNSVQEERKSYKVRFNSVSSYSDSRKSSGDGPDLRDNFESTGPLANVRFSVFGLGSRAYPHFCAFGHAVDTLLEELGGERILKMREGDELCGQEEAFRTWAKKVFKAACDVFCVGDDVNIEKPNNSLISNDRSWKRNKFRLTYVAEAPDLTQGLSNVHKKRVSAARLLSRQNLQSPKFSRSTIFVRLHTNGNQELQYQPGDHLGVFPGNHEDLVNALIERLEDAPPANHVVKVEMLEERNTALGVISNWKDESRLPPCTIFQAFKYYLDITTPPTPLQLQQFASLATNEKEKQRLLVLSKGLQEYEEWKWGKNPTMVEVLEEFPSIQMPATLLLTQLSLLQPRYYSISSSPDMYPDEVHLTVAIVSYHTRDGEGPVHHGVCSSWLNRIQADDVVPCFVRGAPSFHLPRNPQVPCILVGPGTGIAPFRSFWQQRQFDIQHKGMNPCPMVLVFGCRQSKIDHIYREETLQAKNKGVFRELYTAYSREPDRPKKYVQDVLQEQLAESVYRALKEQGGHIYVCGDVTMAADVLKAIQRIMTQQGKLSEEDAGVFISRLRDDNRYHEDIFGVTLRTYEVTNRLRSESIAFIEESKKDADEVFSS

Consider `O=C(O)c1ccc(NCc2cc(Cl)cc(Cl)c2O)cc1O` [ZL006], for which the “PSD-95-nNOS complex level in the SDH” value on PSD-95-nNOS complex is on record as “reversed the SNL-induced upregulation of PSD-95-nNOS interaction”. Also, in assay [1], the “Antinociceptive effect on mechanical hyperalgesia during chronic use (tolerance)” value was “decreased dramatically at d 7 and d 11, compared to d 1”. In addition, the mEPSCs result in assay [2] is reported as “did not affect SNL-induced increase in miniature excitatory postsynaptic currents (mEPSCs)”. The “mIPSCs frequency and amplitude” value in assay [2] (vs vehicle) is on record as “significantly lower than that in vehicle-treated rats”. Further, in assay [3], the “Effect on SNL-induced mechanical hyperalgesia” value is “attenuated both mechanical and thermal hyperalgesia markedly in WT but not in nNOS^-/- mice”. For the same compound, the “Analgesic tolerance when used chronically” value in the assay on neuropathic pain is “cause obvious analgesic tolerance”. Besides, the “Antinociceptive effect on thermal hyperalgesia during chronic use (tolerance)” value in assay [4] is “decreased dramatically at d 7 and d 11, compared to d 1”. For the same compound, the “Effect on SNL-induced thermal hyperalgesia” value in assay [5] is “attenuated both mechanical and thermal hyperalgesia markedly in WT but not in nNOS^-/- mice”.
